Data taken from patent publication US20260207713A1, “Drug Combination Kit for Controlling Blood Sugar” (Ningbo Y Biotechology lnc., priority 2023, published 2026).

Legend:
diabetic rat models = experiment: Type II diabetes rat model (high-sugar, high-fat diet plus STZ); fasting blood sugar and glycated hemoglobin after 3 months of drug intervention; type: in vivo, SPD rats
Experimental: A study in Aging (Albany NY). 2021 Mar. […] The inventor opted for 12-month-old male SPD rats (weighing between 540 grams and 560 grams) for the experiment. These rats were fed a high-sugar, high-fat diet (10% lard, 2.5% cholesterol, 1.0% pig bile salt, 20% sucrose, and 66.5% conventional feed). […] The diet continued for an additional 12 weeks. Finally, rats with a fasting blood sugar level exceeding 10 mmol/L were selected, and their fasting blood sugar levels were measured for 3 consecutive times every 3 days. Rats maintaining stable fasting blood sugar levels above 10 mmol/L were chosen. Each group comprised 5 animals, and a standard diet (18.0% fat, 24.0% protein, and 58.0% carbohydrates) was administered during the drug intervention period. Given that the lifespan of glycated hemoglobin is approximately 3 months, the duration of drug intervention was established at 3 months to ensure precise measurement of post-intervention glycated hemoglobin.
These ingredients are mixed evenly with unsaturated fish oil, and then encapsulated in ultra-long type No. 9 enteric-coated capsules. […] The ketoester was diluted with flavored water to achieve a 50% concentration, while the control solution consisted of flavored water only. The method of gastric gavage was employed.
After three months of medication, blood was drawn from the tail to measure fasting blood sugar and glycated hemoglobin, with results expressed as the mean.
Feed 50% ketoester solution three times daily: at 8 am, 12 pm, and 5 pm. The total daily intake was selected as 3 g/kg/day or 5 g/kg/day, as referenced in BMC Anesthesiol. 2023; 23:p43. […] The subsequent experiment utilized 50% ketoester solution at 3 g/day/kg.

[1] = test system: patients with type II diabetes; details: type II diabetes patients on chemical hypoglycemic drugs, no insulin injection, 28 consecutive days; cited from earlier work
[2] = cited from earlier work
[3] = 20 mg/kg once a day in the morning, diabetic rats
[4] = 50% ketoester solution 3 g/kg/day, three times daily by gavage, diabetic rats
[5] = 50% ketoester solution 5 g/kg/day, three times daily by gavage, diabetic rats

Cc1ccc([C@@H]2O[C@H](CO)[C@@H](O)[C@H](O)[C@H]2O)cc1Cc1ccc(-c2ccc(F)cc2)s1 [Canagliflozin, canagliflozin, reference compound]
Fasting blood sugar after three months (diabetic rat models; [3]): 6.38 ± 0.41 mmol/L | Glycated hemoglobin measurement after three months (diabetic rat models; [3]): 5.63 +/− 0.42%

C[C@@H](O)CCOC(=O)C[C@@H](C)O [ketoester, (R)-3-hydroxybutyrate-(R)-1,3-butanediol ester]
Reduction in fructosamine [1]: 13.4% | Reduction in glycated hemoglobin [1]: 8.3% | Difference in effects on fasting blood sugar and glycated hemoglobin between dosages (diabetic rat models; 3 g/kg/day versus 5 g/kg/day): no significant difference | Fasting blood sugar measurement after three months (diabetic rat models; [4]): 7.15 ± 0.51 mmol/L | Glycated hemoglobin measurement after three months (diabetic rat models; [4]): 6.82 +/− 0.34% | Fasting blood sugar measurement after three months (diabetic rat models; [5]): 6.90 ± 0.41 mmol/L | Glycated hemoglobin measurement after three months (diabetic rat models; [5]): 6.75 +/− 0.42% | Duration of ketogenic effect ([2]; oral solution): 4 to 6 h | Ketogenic effect (level reached) ([2]; oral solution): approximately 3 mM

CC(O)CC(=O)[O-].[Na+] (stereo not drawn) [sodium 3-hydroxybutyrate, reference compound]
Ketogenic effects ([2]; early exogenous ketone): poor ketogenic effects
